Reference: patent publication US20110212960A1, “NEW COMPOUNDS FOR THE TREATMENT OF CNS DISORDER” (BOEHRINGER INGELHEIM INTERNATIONAL GMBH, priority 2009, published 2011)
Where two headings read alike, the source gives them in different places.

Target: T1, human PDE9A2 (Homo sapiens, UniProt O76083)
T1 construct: made in house; host or cells: Sf9 insect cells (infected; crude lysate used as enzyme source)
Test: PDE9A2 enzymatic activity assay (scintillation proximity assay)
Type: biochemical
Conditions: for inhibition at 10 µM: read-out: % inhibition of PDE9A2
Procedure: The PDE9A2 enzymatic activity assay was run as scintillation proximity assay (SPA), in general according to the protocol of the manufacturer (Amersham Biosciences, product number: TRKQ 7100).
As enzyme source, lysate (PBS with 1% Triton X-100 supplemented with protease inhibitors, cell debris removed by centrifugation at 13.000 rpm for 30 min) of SF 9 cell expressing the human PDE9A2 was used. The total protein amount included in the assay varied upon infection and production efficacy of the SF9 cells and lay in the range of 0.1-100 ng.
In general, the assay conditions were as follows: • total assay volume: 40 microliter • protein amount: 0.1-50 ng • substrate concentration (cGMP): 20 nanomolar; ˜1 mCi/l • incubation time: 60 min at room temperature • final DMSO concentration: 0.2-1%
The assays were run in 384-well format. The test reagents as well as the enzyme and the substrate were diluted in assay buffer. The assay buffer contained 50 mM Tris, 8.3 mM MgCl2, 1.7 mM EGTA, 0.1% BSA, 0.05% Tween 20; the pH of assay buffer was adjusted to 7.5. The reaction was stopped by applying a PDE9 specific inhibitor (e.g. compounds according to WO04099210 or WO04099211) in excess.
The activity of the positive control (minus the negative control=background) is set to 100% and activity in the presence of test compound is expressed relative to these 100%.

[1] = specific IC50 value lies within the given range, read-out: IC50 within range [nanomolar (nM)]

T1 sequence (O76083 1-533 isoform O76083-2): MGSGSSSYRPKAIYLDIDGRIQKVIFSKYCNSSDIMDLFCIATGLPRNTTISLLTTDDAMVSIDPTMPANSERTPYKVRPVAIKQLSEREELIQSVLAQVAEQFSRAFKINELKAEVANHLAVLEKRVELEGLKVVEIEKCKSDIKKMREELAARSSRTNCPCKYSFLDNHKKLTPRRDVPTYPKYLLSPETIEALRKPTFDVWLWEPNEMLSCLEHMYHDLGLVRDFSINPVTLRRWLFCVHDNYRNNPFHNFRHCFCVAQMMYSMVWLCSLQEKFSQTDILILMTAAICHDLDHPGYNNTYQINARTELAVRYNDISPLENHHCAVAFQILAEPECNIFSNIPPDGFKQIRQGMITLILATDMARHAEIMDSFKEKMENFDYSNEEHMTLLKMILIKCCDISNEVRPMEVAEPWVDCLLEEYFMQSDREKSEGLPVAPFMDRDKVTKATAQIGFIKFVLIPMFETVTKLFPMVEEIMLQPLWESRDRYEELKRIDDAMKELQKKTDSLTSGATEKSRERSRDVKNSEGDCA

| SMILES | IC50 [1] [nM] | inhibition at 10 µM (at 10 micromolar concentration) [%] | IC50 [nM] | inhibition at 10 µM [%] |
| --- | --- | --- | --- | --- |
| Cc1ccccc1-n1ncc2c(=O)[nH]c(C3CC3C)nc21 (mixture of isomers) [Example 37] | 1 to 200 |  |  |  |
| COC(=O)C1CCCC(c2nc3c(cnn3-c3ccccc3C)c(=O)[nH]2)C1 (mixture of isomers) [Example 38] | 1 to 200 |  |  |  |
| Cc1ccccc1-n1ncc2c(=O)[nH]c(C3CCCC(O)C3)nc21 (mixture of isomers) [Example 40] | 201 to 5000 |  |  |  |
| Cc1ccccc1-n1ncc2c(=O)[nH]c(C3CCC(O)C(O)C3)nc21 (mixture of isomers) [Example 41] | 201 to 5000 |  |  |  |
| CCOC(=O)C1CCCC(c2nc3c(cnn3C(CC)CC)c(=O)[nH]2)C1 (mixture of isomers) [Example 42] | 201 to 5000 |  |  |  |
| CCC(CC)n1ncc2c(=O)[nH]c(C3CCC(C(=O)Nc4cc(OC)cc(OC)c4)CC3)nc21 (mixture of isomers) [Example 44] | 201 to 5000 |  |  |  |
| O=C([C@H]1CC[C@@H]1c1nc2c(cnn2C2CCC(F)(F)CC2)c(=O)[nH]1)N1CCOCC1 (racemic) [Example 1] | 1 to 200 | 99 |  |  |
| O=C([C@H]1CC[C@@H]1c1nc2c(cnn2C2CCC(F)(F)CC2)c(=O)[nH]1)N1CC[C@@H](F)C1 (racemic) [Example 2] | 1 to 200 | 100 |  |  |
| O=C([C@H]1CC[C@@H]1c1nc2c(cnn2C2CCC(F)(F)CC2)c(=O)[nH]1)N1CCC(F)(F)C1 (racemic) [Example 3] | 1 to 200 | 100 |  |  |
| O=C([C@H]1CC[C@@H]1c1nc2c(cnn2C2CCC(F)(F)CC2)c(=O)[nH]1)N1CC(F)(F)C(F)(F)C1 (racemic) [Example 4] | 1 to 200 | 97 |  |  |
| O=C([C@H]1CC[C@@H]1c1nc2c(cnn2C2CCC(F)(F)CC2)c(=O)[nH]1)N1CCC2(CC2)C1 (racemic) [Example 5] | 1 to 200 | 100 |  |  |
| O=C([C@H]1CC[C@@H]1c1nc2c(cnn2C2CCC(F)(F)CC2)c(=O)[nH]1)N1CCC(C(F)(F)F)CC1 (racemic) [Example 6] | 1 to 200 | 101 |  |  |
| CO[C@@H]1CCN(C(=O)[C@H]2CC[C@@H]2c2nc3c(cnn3C3CCC(F)(F)CC3)c(=O)[nH]2)C1 (racemic) [Example 7] | 1 to 200 | 102 |  |  |
| O=C([C@H]1CC[C@@H]1c1nc2c(cnn2C2CCC(F)(F)CC2)c(=O)[nH]1)N1C[C@H]2CCC[C@H]2C1 (racemic) [Example 8] |  |  | 1 to 200 | 100 |
| O=C([C@H]1CC[C@@H]1c1nc2c(cnn2C2CCC(F)(F)CC2)c(=O)[nH]1)N1CCC(F)(F)CC1 (racemic) [Example 9] | 1 to 200 | 100 |  |  |
| CC1(C)CCN(C(=O)[C@H]2CC[C@@H]2c2nc3c(cnn3C3CCC(F)(F)CC3)c(=O)[nH]2)CC1 (racemic) [Example 10] | 1 to 200 | 97 |  |  |
| O=C([C@H]1CC[C@@H]1c1nc2c(cnn2C2CCC(F)(F)CC2)c(=O)[nH]1)N1CCC(F)CC1 (racemic) [Example 11] | 1 to 200 | 94 |  |  |
| O=C([C@H]1CC[C@@H]1c1nc2c(cnn2C2CCC(F)(F)CC2)c(=O)[nH]1)N1CCCC1 (racemic) [Example 12] | 1 to 200 | 99 |  |  |
| COC1(C)CCN(C(=O)[C@H]2CC[C@@H]2c2nc3c(cnn3C3CCC(F)(F)CC3)c(=O)[nH]2)CC1 (racemic) [Example 13] | 1 to 200 | 97 |  |  |
| O=C([C@H]1CC[C@@H]1c1nc2c(cnn2C2CCC(F)(F)CC2)c(=O)[nH]1)N1CCCC(F)(F)C1 (racemic) [Example 14] | 1 to 200 | 100 |  |  |
| CC1CCN(C(=O)[C@H]2CC[C@@H]2c2nc3c(cnn3C3CCC(F)(F)CC3)c(=O)[nH]2)CC1 (racemic) [Example 15] | 1 to 200 | 101 |  |  |
| CC1(C)CN(C(=O)[C@H]2CC[C@@H]2c2nc3c(cnn3C3CCC(F)(F)CC3)c(=O)[nH]2)CCO1 (racemic) [Example 16] | 1 to 200 | 98 |  |  |
| CCN(CC)C(=O)[C@H]1CC[C@@H]1c1nc2c(cnn2C2CCC(F)(F)CC2)c(=O)[nH]1 (racemic) [Example 17] | 1 to 200 | 99 |  |  |
| O=C([C@H]1CC[C@@H]1c1nc2c(cnn2C2CCC(F)(F)CC2)c(=O)[nH]1)N1CCCCC1 (racemic) [Example 18] | 1 to 200 | 96 |  |  |
| O=C([C@H]1CCC[C@@H]1c1nc2c(cnn2C2CCC(F)(F)CC2)c(=O)[nH]1)N1CCC(F)(F)CC1 (racemic) [Example 19] | 1 to 200 | 92 |  |  |
